We go through five compounds from patent publication US20070299103A1, “[1,2,4]Triazolo[4,3-A]Pyridine Derivatives for the Treatment of Hyperproliferative Diseases” (priority 2004, published 2007).

One data set addresses human MEK1 (Homo sapiens, UniProt Q02750). Put plainly: Inhibition of human MEK1 kinase activity, TR-FRET assay. The class given is biochemical. The settings on record: 100 nM MEK1, 15 μM ATP, 300 nM ERK2, two hours; read-out: Inhibition of MEK, Activity (IC50). On the procedure: The activity of the compounds of the present invitation may be determined by the following procedure: Inhibition of human MEK1 kinase activity was monitored with a homogenous, fluorescence based assay. The assay uses time resolved fluorescence resonance energy transfer to probe for phosphorylation of ERK1 by MEK1. The assay is carried out in low volume 96 well microtiterplates. In a total volume of 15 μl, compounds are incubated with 100 nM MEK1, 15 μM ATP, 300 nM ERK2 employing a buffer containing 20 mM TRIS/HCl, 10 mM MgCl2, 100 μM NaVO4, 1 mM DTT, and 0.005% Tween 20 (pH 7.4). After two hours, 5 nM Europium-anti-PY20 (Perkin Elmer) and 50 nM Anti-GST-Allophycocyanin (CisBio) in buffer containing 50 mM EDTA and 0.05% BSA are added and the reaction incubated for one hour in the dark. Time-resolved fluorescence is measured using a LJL-Analyst (Molecular Devices) with an excitation wavelength of 340 nm and an emission wavelength of 665 nm. The final concentration of DMSO is 2%. To assess the inhibitory potential of the compounds, IC50-values were determined.
The following compounds exemplify such activity with “+” meaning 1 μM<IC50≦10 μM and “++” IC50≦1 μM
(In general: TR-FRET usually uses a lanthanide donor and a delayed reading to cut background.)

A further data set has as its system Murine colon C26 cells. The data set is described as follows: Tumor cell proliferation assay (ATP Lite), C26. The format is cell-based. Conditions: 4 days incubation. The procedure:
(§1) Murine colon C26, human melanoma A375 and human melanoma Mel5 cells were plated in 96 well Corning white plates (1500 cells/well for C26, and 2000 cells/well for A375, and MiaPaCa-2) and cultured overnight at 37° C. in 5% CO2. Inhibitors were serially diluted in 100% DMSO and subsequently added to cells to reach a final concentration of 0.25% DMSO. The cells were incubated for 4 days in the presence of test compounds in cell growth media (DMEM with 10% fetal bovine serum, 2 mM glutamine for C26, and MiaPaCa-2, and RPMI with 10% fetal bovine serum, 2 mM glutamine for A375). Cell proliferation was quantitated using the ATP lite cell proliferation kit (Packard). Columns 2-4 show the concentration of compounds required to induce 50% cell death (IC50 in μM) of human endometriotic cells. With “+” meaning 100 μM<IC50≦10 μM and “++” IC50≦1 μM and “n.d.” means not determined.

Data set [1] has as its system human melanoma Mel5 cells. Put plainly: Tumor cell proliferation assay (ATP Lite), Mel5. The format is cell-based. The settings on record: 4 days incubation. The procedure: as §1
The subject of data set [2] is human melanoma A375 cells. The data set is described as follows: Tumor cell proliferation assay (ATP Lite), A375. The class given is cell-based. Conditions: 4 days incubation. On the procedure: as §1
Data set [3] can be described thus: Microsomal stability assay, human liver microsomes. The format is in vitro ADME. Conditions: pooled human liver microsomes, pH 7.4; 3 μM compound, 0.5 mg/ml human liver microsomes, 37° C., 2 mM NADPH; read-out: HLM t½. On the procedure:
(§2) Compounds were tested on their stability in human, rat and mouse liver microsomal preparations (HLM, RLM and MLM respectively). At a final concentration of 3 μM, compounds were incubated at 37° C. with 0.5 mg/ml human, rat or mouse liver microsomes in a buffer containing 50 mM phosphate, pH 7.4 and 2 mM NADPH. Pooled human liver microsomes or pooled male rat liver microsomes (Sprague Dawley) were obtained from NatuTec (Frankfurt, Germany). Incubations without NADPH served as negative controls. Reactions were stopped after 0, 15, 30, 45 or 60 min by the addition of acetonitrile and microsomes were pelleted by centrifugation (10 min at 6200×g). Supernatants were analyzed by HPLC regarding the concentration of mother compound. Finally, the half-life of compounds in the regarding microsomal preparation was calculated.
On the technique in general: Liver microsomes are a subcellular fraction often used to study metabolism.

Data set [4] can be described thus: Microsomal stability assay, rat liver microsomes. The format is in vitro ADME. Conditions: male, Sprague Dawley, pooled rat liver microsomes, pH 7.4; 3 μM compound, 0.5 mg/ml rat liver microsomes, 37° C., 2 mM NADPH; read-out: RLM t½. On the procedure: as §2
The test system of the next data set is Caco-2 cells. Put plainly: Caco-2 permeability assay. The format is in vitro ADME. The settings on record: 10 μM, pH 7.4, 120 minutes. The procedure: Caco-2 cells obtained from the ATCC at passage number 27 are used. Cells (passage number 40-60) were seeded on to Millipore Multiscreen Caco-2 plates or Falcon HTS inserts at 1×10^5 cells/cm2. Cells were cultured for 20 days in DMEM and media was changed every two or three days. On day 20 the permeability study was performed.
Permeability was studied by applying compound to the apical surface of cell monolayers and measuring compound permeation into the basolateral compartment. The experiment was also performed in the reverse direction (B-A) to investigate active transport. […]
HBSS was then removed from the apical compartment and replaced with test compound dosing solutions. […] Test compound permeability was assessed in duplicate. […]
The integrity of the monolayers throughout the experiment is checked by monitoring lucifer yellow permeation using fluorimetric analysis. […] Test and control compounds were quantified by LC-MS/MS cassette analysis using a 5-point calibration with appropriate dilution of the samples. […]
The permeability coefficient for each compound (Papp) was calculated from the following equation: Papp=[dQ/dt]/[C0×A] […]
Wherein “+” means a caco A-B and caco B-A value of 1-10 and “++” means a caco A-B and caco B-A value of 11-100 and “n.d.” means not determined.

For another data set, the system named is Tumors. Conditions: patients; cited from earlier work.
For data set [5] the following is noted: in vivo; cited from earlier work.

Structures are written as SMILES.

human MEK1, sequence (Q02750 whole entry): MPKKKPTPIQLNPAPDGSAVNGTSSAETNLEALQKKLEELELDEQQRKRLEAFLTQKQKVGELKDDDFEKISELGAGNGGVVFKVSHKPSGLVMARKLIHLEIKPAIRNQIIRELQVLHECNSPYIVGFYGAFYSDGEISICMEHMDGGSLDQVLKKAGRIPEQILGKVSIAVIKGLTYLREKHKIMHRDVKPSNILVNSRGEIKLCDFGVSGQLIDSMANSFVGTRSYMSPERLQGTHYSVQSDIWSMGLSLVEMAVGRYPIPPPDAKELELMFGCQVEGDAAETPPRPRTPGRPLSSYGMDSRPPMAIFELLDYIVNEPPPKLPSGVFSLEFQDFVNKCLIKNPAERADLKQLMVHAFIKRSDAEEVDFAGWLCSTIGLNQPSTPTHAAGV

As to `Cc1cc(Br)ccc1Nc1cc2nnc(C)n2cc1C(=O)O` [Compound 2a, 7-[(4-Bromo-2-methylphenyl)amino]-3-methyl[1,2,4]triazolo[4,3-a]pyridine-6-carboxylic acid], on human MEK1, the IC50 (as a rule, the midpoint of a concentration-inhibition curve) was in the range of 1000 to 10000 nM. Moreover, the “C26 cells IC50” value in the data set with Murine colon C26 cells is on record as “+ (100 μM<IC50≦10 μM)”. Moreover, the “Mel5 cells IC50” value in data set [1] was “+ (100 μM<IC50≦10 μM)”. Further, the “A375 cells IC50” value in [2] was “+ (100 μM<IC50≦10 μM)”.

For `Cc1cc(Br)ccc1Nc1cc2nnc(C)n2cc1C(=O)NO` [Compound 3a, 7-[(4-Bromo-2-methylphenyl)amino]-N-hydroxy-3-methyl[1,2Z4]triazolo[4,3-a]pyridine-6-carboxamide], the IC50 on human MEK1 is at most 1000 nM. Moreover, in the data set with Murine colon C26 cells, the “C26 cells IC50” value is “+ (100 μM<IC50≦10 μM)”. Besides, the “Mel5 cells IC50” value in data set [1] is “+ (100 μM<IC50≦10 μM)”. In addition, the “A375 cells IC50” value in [2] is reported as “+ (100 μM<IC50≦10 μM)”.

As to `Cc1cc(Br)ccc1Nc1cc2nnc(C)n2cc1C(=O)NOC[C@@H](O)CO` [Compound 3b, 7-[(4-Bromo-2-methylphenyl)amino]-N-([(2S)-2,3-dihydroxypropyl]oxy)-3-methyl[1,2,4]triazolo[4,3-a]pyridine-6-carboxamide], the IC50 at human MEK1 lay in the range of 1000 to 10000 nM. The “C26 cells IC50” value with Murine colon C26 cells is on record as “+ (100 μM<IC50≦10 μM)”. Besides, the “Mel5 cells IC50” value in data set [1] is “+ (100 μM<IC50≦10 μM)”. For the same compound, the “A375 cells IC50” value in data set [2] is recorded as “+ (100 μM<IC50≦10 μM)”. The half-life at 3 μM in [3] and in data set [4] was over 2 h throughout. Also, the “Caco A-B” value in the data set with Caco-2 cells (apical to basolateral) was “+ (a caco A-B and caco B-A value of 1-10)”. The “Caco B-A” value with Caco-2 cells (basolateral to apical) is “+ (a caco A-B and caco B-A value of 1-10)”.

With `Cc1cc(I)ccc1Nc1cc2nnc(C)n2cc1C(=O)NOC[C@H](O)CO` [Compound 3c, 7-[(4-Iodo-2-methylphenyl)amino]-N-([(2R)-2,3-dihydroxypropyl]oxy)-3-methyl[1,2,4]triazolo[4,3-a]pyridine-6-carboxamide], the IC50 on human MEK1 was at most 1000 nM.

In the case of `O=C(NOCC1CC1)c1ccc(F)c(F)c1Nc1ccc(I)cc1Cl` [PD-184352], the “efficacy in clinical phase II trials” value in the data set on Tumors is on record as “lacking efficacy”. The bioavailability entry in data set [5] was “low bioavailability”.
